Measurements published in patent US10160785B2, “Antimicrobial peptides and their use for the treatment of topical infections” (priority 2015, dated 2018).
≈ marks a conversion by molar mass, not a printed value. Each block holds one molecule with its values, some of them ahead of it.

Experiments:
[1] = system: Methicillin resistant Staphylococcus aureus (MRSA) 6271; conditions: 37° C., 20 h
Description: (§1) Gram-positive bacteria (Micrococcus luteus, Bacillus subtilis, Staphylococcus aureus, Staphylococcus epidermidis and Enterococcus faecalis), Gram-negative bacteria (Escherichia coli and Pseudomonas aeruginosa) and the yeast (Candida albicans) were grown to exponential phase and then were diluted with fresh medium. BHI medium (Oxoid, Great Britain) was used for Enterococcus faecalis; YPD medium containing yeast extract peptone and glucose was used for Candida albicans and LB medium (Sigma, Czech Republic) was used for the remaining microorganisms. Then the microorganisms were added to the solutions of the tested antimicrobial peptides in LB medium in multi-well plates. The final peptide concentration it the wells was in the range of 0.1 to 100 μmol.l^−1. That was made by twofold serial dilution from the peptide stock solution (1 mmol.l^−1). The plates were incubated at 37° C. for 20 h while being continuously shaken in a Bioscreen C (Oy Growth Curves AB Ltd., Helsinki, Finland). Absorbance was measured at 540 nm every 15 min. Antimicrobial activity (Table 2) was determined as a quantitative minimum inhibitory concentration (MIC) by observing bacterial growth in the presence of different concentrations of tested peptides. In the experiments ca 10^5 CFU of bacteria or candida per well were routinely used.
(§2) Multiresistant clinical isolates of bacteria were obtained from University Hospital in Motol, Prague, Czech Republic and from Liberec Regional Hospital, Czech Republic. Methicillin resistant Staphylococcus aureus (MRSA) 6271 and Pseudomonas aeruginosa 5482 were from the Czech National Collection of Type Cultures, the National Institute of Public Health, Prague, Czech Republic. Other bacteria were from the Czech Collection of Microorganisms, Brno, Czech Republic. Candida albicans came from the Faculty of Medicine, Palacky University, Olomouc, Czech Republic.

[2] = system: Pseudomonas aeruginosa 5482; conditions: 37° C., 20 h
Description: as §1, §2

[3] = system: Enterococcus faecalis Motol; conditions: BHI medium, 37° C., 20 h
Description: as §1, §2

[4] = system: Staphylococcus aureus Liberec; conditions: Staphylococcus aureus Liberec clinical isolate; 37° C., 20 h
Description: as §1, §2

Escherichia coli = conditions: 37° C., 20 h
Description: as §1, §2

Bacillus subtilis = conditions: Bacillus subtilis; 37° C., 20 h
Description: as §1, §2

[5] = system: Staphylococcus aureus Motol; conditions: Staphylococcus aureus Motol clinical isolate; 37° C., 20 h
Description: as §1, §2

[6] = system: Pseudomonas aeruginosa Liberec; conditions: Pseudomonas aeruginosa Liberec; 37° C., 20 h
Description: as §1, §2

Candida albicans Olomouc = conditions: Candida albicans Olomouc; YPD medium; 37° C., 20 h (Example 2)
Description: as §1, §2

[7] = system: Staphylococcus epidermidis Motol; conditions: 37° C., 20 h
Description: as §1, §2

[8] = system: Candida dubliniensis ATCC MYA-646; experiment: microbe, parasite or virus in culture; type: cell-based; conditions: RPMI broth microdilution, 35° C., 48 hours, visual
Description: (§3) All yeasts Candida albicans (Olomouc) and ATCC MYA-2876, Candida glabrata ATCC 2001 and DSY 565, Candida dubliniensis ATCC MYA-646, Candida krusei ATCC 6258 and Candida tropicalis ATCC 750 were sub-cultured from sterile vials onto Sabouraud dextrose agar, which was composed of 40 g dextrose (Penta, Czech Republic), 10 g peptone (OXOID, Great Britain) and 17 g agar (OXOID), dissolved in 1 l of distilled water, and cultivated for 24 hours at 35° C.
(§4) All strains were stored in a way that minimizes the possibility of mutation. Candida spp. were grown overnight in liquid YPD medium which is composed of 10 g yeast extract (DIFCO, USA), 20 g peptone (OXOID), and 20 g dextrose (Penta) dissolved in 1 l distilled water. Then the overnight culture was cryogenically preserved by suspending in 50% glycerol solution (1:1) in small vials and stored at −80° C.
(§5) The inoculum was prepared by picking five colonies from 24-hour-old cultures of Candida spp. The colonies were suspended in 1 ml of sterile saline solution and vortexed for 15 seconds. Optical density of the suspension was adjusted spectrophotometrically by adding sterile saline solution to produce optical density of 0.18 at 600 nm. A working suspension was made by a 1:50 dilution followed by a 1:20 dilution of the stock suspension with RPMI 1640 broth medium which was composed of L-glutamine without NaHCO3 (BioSera, France), and with 0.165 mol.l^−1 MOPS (Duchefa, Netherland)—further as RPMI broth medium.
(§6) The broth microdilution test was performed by using sterile, disposable, multi-well microdilution plates (96-well). The peptides in the concentrations 0.625-160 μmol.l^−1 were pipetted into the wells in 100 μl volumes. Each well of the plate was inoculated with 100 μl of the diluted inoculum suspension. Final yeast density in each well was 5×10^2 up to 2.5×10^3 CFU/ml. The microdilution plates were incubated without shaking at 35° C. and observed for the presence or absence of visible growth for 48 hours.
(§7) Drug-free medium without inoculation served as negative control; the growth positive control contained inoculated drug-free medium. Amphotericin B was used as control drug to ensure quality of Candida strains.
(§8) The minimal inhibition concentrations (MICs) were visually determined 48 hours after inoculation. The MIC values were defined as the lowest concentration in which no observable growth is noticeable.
(§9) All yeast isolates were obtained from the Institute of Physiology of the Academy of Sciences of the Czech Republic. Candida albicans (Olomouc) came from the Faculty of Medicine and Dentistry, Palacý University Olomouc.

[9] = system: Candida albicans (Olomouc); experiment: microbe, parasite or virus in culture; type: cell-based; conditions: RPMI broth microdilution, 35° C., 48 hours, visual
Description: as §3, §4, §5, §6, §7, §8, §9

Candida glabrata DSY 565 = experiment: microbe, parasite or virus in culture; type: cell-based; conditions: RPMI broth microdilution, 35° C., 48 hours, visual
Description: as §3, §4, §5, §6, §7, §8, §9

[10] = system: Candida glabrata ATCC 2001; experiment: microbe, parasite or virus in culture; type: cell-based; conditions: RPMI broth microdilution, 35° C., 48 hours, visual
Description: as §3, §4, §5, §6, §7, §8, §9

[11] = system: Candida tropicalis ATCC 750; experiment: microbe, parasite or virus in culture; type: cell-based; conditions: RPMI broth microdilution, 35° C., 48 hours, visual
Description: as §3, §4, §5, §6, §7, §8, §9

Candida krusei ATCC 6258 = experiment: microbe, parasite or virus in culture; type: cell-based; conditions: RPMI broth microdilution, 35° C., 48 hours, visual
Description: as §3, §4, §5, §6, §7, §8, §9

[12] = system: Candida albicans ATCC MYA-2876; experiment: microbe, parasite or virus in culture; type: cell-based; conditions: RPMI broth microdilution, 35° C., 48 hours, visual
Description: as §3, §4, §5, §6, §7, §8, §9

in vitro = conditions: human
Description: The peptides in the concentrations 2-200 μmol.l^−1 were incubated with the suspension of human red blood cells (5% v/v) for 1 h at 37° C. in a physiological solution at a final volume of 0.2 ml. The samples were then centrifuged for 5 min at 250 g, and the absorbance of the supernatant was determined at 540 nm. Supernatants of red blood cells suspended in physiological solution and in 0.2% (v/v) TRITON X100 in physiological solution served as controls for zero hemolysis (blank) and 100% hemolysis, respectively. Hemolytic activity is expressed as the peptide concentration required for lysis of 50% of human erythrocytes in the assay (LC50).

P. aeruginosa (Liberec) = experiment: Synergistic effect of peptides with antibiotics, FIC index; type: cell-based, Pseudomonas aeruginosa; conditions: FIC <0.5 synergism, 0.5-2 additive, >2 antagonism, averages of three experiments
Description: MICs values of various combinations of two fold serial dilutions of peptides and antibiotics were determined using the same methodology as in the case of antimicrobial activity determination (Example 2). To consider the type of the final effect, FIC indexes (fractional inhibitory concentration) were used and calculated as follows:
[formula] where MICPC and MICAC are the MICs of the peptide and antibiotic in combination, respectively, and MICP and MICA are the MICs of the peptide and antibiotic tested alone, respectively. FIC<0.5 were considered as synergy, 0.5≤FIC≤2 as addition effect, and FIC>2 as antagonism.

[13] = system: Candida albicans (Olomouc) biofilm; experiment: C. albicans biofilm, remaining metabolic activity (XTT); type: cell-based
Description: Candida albicans (Olomouc) was sub-cultured overnight in YPD medium (10 g yeast extract (DIFCO, USA), 20 g peptone (OXOID), 20 g glucose (Penta) dissolved in 1 L of distilled water) at constant shaking (100 RPM) at 37° C. Next day, the overnight culture was diluted 1:100 into fresh YPD medium and incubated at constant shaking (200 RPM) at 37° C. until the mid-exponential growth phase was reached. Then the cells were harvested and washed twice by centrifugation in physiological solution (5000 RPM; 5 min). Cells were suspended in sterile salt solution and their optical density was determined at 600 nm.
A final yeast suspension was prepared at a cell density of 1×10^6 CFU (corresponding to optical density of 0.17 at 600 nm) in RPMI 1640 medium with L-glutamine (BioSera), NaHCO3 (2 g/l; Penta) and 0.165 mol.l^−1 MOPS (Duchefa)—further as RPMI broth medium 1.
Biofilms were formed on commercially available sterile, polystyrene, flat-bottomed, 96-well microtiter plates (TPP, SW). Cell suspension (100 μl) was pipetted into selected wells of a microtiter plate and incubated without shaking for 2 hours at 37° C. Afterwards, the wells were washed twice with sterile PBS buffer (1.44 g Na2HPO4, 0.24 g KH2PO4, 0.2 g KCl and 8 g NaCl in 1 l distilled water, pH=7; Penta). Fresh RPMI broth medium 1 (100 μl) was added to each well and the plate was sealed with parafilm and incubated without shaking for 48 hours at 37° C.
Planktonic and non-adherent cells were removed by threefold washing of the biofilm with sterile PBS buffer (200 μl). A twofold serial dilution was used to reach required peptide concentration (in RPMI broth medium 1) in each well. Peptide concentrations range was between 0.39-200 μmol.l^−1. Plates were then sealed with parafilm and incubated for 20 hours at 37° C.
The metabolic activity of surviving Candida cells in the treated biofilm was determined by staining with XTT (2,3-Bis(2-methoxy-4-nitro-5-sulphophenyl)-2H-tetrazolium-5-carboxanilide). Stock solution of PMS (phenazine methosulfate; 7.5 g/l; SIGMA, Czech Republic) stored at −20° C. was diluted in PBS buffer 1:100. Diluted PMS was further mixed (2:25) with stock solution of XTT (0.5 g/l; Alchimica, Slovakia) dissolved in PBS/RPMI broth medium (1:1). Mixture (100 μl) of PMS and XTT was added into treated biofilm in the wells and incubated for 90 min at 37° C. Then the intensity of staining in each well was measured as absorbance at 540 nm on a Tecan Infinite M200 Pro reader (Tecan GmbH, Austria). Remaining metabolic activity of the cells in the biofilm was expressed for each well in percentage and calculated as follows:
[formula] where A is the absorbance of tested compound, ABL is the absorbance of negative control and AC is the absorbance of control untreated biofilm. The non-inoculated wells served as negative control. Inoculated wells not treated with compound served as positive control. Amphotericin B was used as control drug to ensure quality of Candida albicans. The values of remaining metabolic activity of treated biofilms are shown at Table 5.

Molecule: H-GILSSLLKKLKKWIAK-NH2 [XVIII]
Antimicrobial activity MIC S. a. 6271 [1]: 8.0 µM
Antimicrobial activity MIC P. a. 5482 [2]: 8.0 µM
Antimicrobial activity MIC E. f. Motol [3]: 25.3 µM
Antimicrobial activity MIC S. a. Liberec [4]: 2.5 µM
Antimicrobial activity MIC E. c. (Escherichia coli): 4.0 µM
Antimicrobial activity MIC B. s. (Bacillus subtilis): 1.3 µM
Antimicrobial activity MIC S. a. Motol [5]: 4.0 µM
Antimicrobial activity MIC P. a. Liberec [6]: 20.7 µM
Antimicrobial activity MIC C. a. Olomouc (Candida albicans Olomouc): 16.0 µM
Antimicrobial activity MIC S. e. Motol [7]: 1.6 µM
Antifungal activity MIC C. dubliniensis ATCC MYA-646 [8]: 10.0 µM
Antifungal activity MIC C. albicans Olomouc [9]: 8.5 µM
Antifungal activity MIC C. glabrata DSY 565 (Candida glabrata DSY 565): 24.0 µM
Antifungal activity MIC C. glabrata ATCC 2001 [10]: 8.5 µM
Antifungal activity MIC C. tropicalis ATCC 750 [11]: 1.2 µM
Antifungal activity MIC C. krusei ATCC 6258 (Candida krusei ATCC 6258): 7.8 µM
Antifungal activity MIC C. albicans ATCC MYA-2876 [12]: 10.0 µM
HC50 at 1 h (in vitro): 160 µM
FIC indexes (fractional inhibitory concentration) Combination with RIF against P. aeruginosa (P. aeruginosa (Liberec); peptide combined with rifampicin): 0.271
FIC indexes (fractional inhibitory concentration) Combination with TET against P. aeruginosa (P. aeruginosa (Liberec); peptide combined with tetracycline): 0.625

MIC ([8]; Candida dubliniensis, read-out: Antifungal activity MIC C. dubliniensis ATCC MYA-646): 1.8 µM (≈ 0.551 µg/mL)
MIC ([9]; Candida albicans, read-out: Antifungal activity MIC C. albicans Olomouc): 2 µM (≈ 0.613 µg/mL)
MIC (Candida glabrata DSY 565; Nakaseomyces glabratus, DSY565, read-out: Antifungal activity MIC C. glabrata DSY 565): 950 µM (≈ 291 µg/mL)
MIC ([10]; Nakaseomyces glabratus, ATCC2001, read-out: Antifungal activity MIC C. glabrata ATCC 2001): 267 µM (≈ 81.7 µg/mL)
MIC ([11]; Candida tropicalis, ATCC750, read-out: Antifungal activity MIC C. tropicalis ATCC 750): 49.3 µM (≈ 15.1 µg/mL)
MIC (Candida krusei ATCC 6258; Pichia kudriavzevii, ATCC6258, read-out: Antifungal activity MIC C. krusei ATCC 6258): 516 µM (≈ 158 µg/mL)
MIC ([12]; Candida albicans, read-out: Antifungal activity MIC C. albicans ATCC MYA-2876): 2.2 µM (≈ 0.674 µg/mL)
Molecule: OC(Cn1cncn1)(Cn1cncn1)c1ccc(F)cc1F [Fluconazole, reference compound]
Metabolic activity of C. albicans (%) ([13]; peptide concentration 6.25 μmol · l^−1, 20 hours): 33.5%
Metabolic activity of C. albicans (%) ([13]; peptide concentration 12.5 μmol · l^−1, 20 hours): 30.8%
Metabolic activity of C. albicans (%) ([13]; peptide concentration 25 μmol · l^−1, 20 hours): 31.7%
Metabolic activity of C. albicans (%) ([13]; peptide concentration 50 μmol · l^−1, 20 hours): 30.7%
Metabolic activity of C. albicans (%) ([13]; peptide concentration 100 μmol · l^−1, 20 hours): 32.4%
Metabolic activity of C. albicans (%) ([13]; peptide concentration 200 μmol · l^−1, 20 hours): 29.2%
